Legend:
[1] = target: GDP-bound KRAS wild-type protein (Homo sapiens, UniProt P01116); assay: Binding to KRAS by surface plasmon resonance (SPR), dissociation constant KD; conditions: Single Cycle Kinetics
In short: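 Single-cycle kinetics on GDP-loaded biotin-Avi RAS captured to ~100–300 RU; 75 s ascending injections, 100 µL/min, 30°C. HBS pH 7.4 + 10 mM MgCl2/10 µM GDP/4% DMSO. 1:1 fit, KD.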

[2] = tested on: human lung cancer strain NCI-H441; assay: NCI-H441 cell proliferation inhibitory activity (CellTiter-Glo, 4 days); assay type: cell-based; conditions: NCI-H441 cells, 4 days, read-out: NCl-H441 IC50
In short: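 Readout: […] after the ATP-based reagent. Compound: serial dilutions in dimethyl sulfoxide.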

[3] = target: GDP-bound NRAS wild-type protein (Homo sapiens, UniProt P01111); assay: Binding to NRAS by surface plasmon resonance (SPR), KD and KD ratio to KRAS; conditions: ratio of KD for GDP-bound NRAS wild-type protein to KD for KRAS
In short: (§1)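 GDP-loaded biotinylated Avi-tag RAS proteins (E. coli-expressed) captured on a Biotin CAPture chip at ~100–300 RU; single-cycle kinetics at 30°C, 100 µL/min, 75 s injections of rising compound concentrations. HBS pH 7.4 running buffer with 1 mM DTT, 10 mM MgCl2, 10 µM GDP, 4% DMSO. KD from 1:1 binding fit.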

HRAS wild-type protein = HRAS wild-type protein (Homo sapiens, UniProt P01112); assay: Binding to HRAS by surface plasmon resonance (SPR), KD and KD ratio to KRAS; conditions: ratio of KD for HRAS wild-type protein to KD for KRAS
In short: as §1

GDP-bound NRAS wild-type protein, sequence (P01111 whole entry): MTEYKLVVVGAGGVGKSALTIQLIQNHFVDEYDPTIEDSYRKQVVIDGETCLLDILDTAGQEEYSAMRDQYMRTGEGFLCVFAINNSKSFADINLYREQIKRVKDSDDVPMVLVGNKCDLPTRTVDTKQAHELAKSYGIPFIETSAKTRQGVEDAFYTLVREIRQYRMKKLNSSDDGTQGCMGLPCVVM
HRAS wild-type protein, sequence (P01112 whole entry): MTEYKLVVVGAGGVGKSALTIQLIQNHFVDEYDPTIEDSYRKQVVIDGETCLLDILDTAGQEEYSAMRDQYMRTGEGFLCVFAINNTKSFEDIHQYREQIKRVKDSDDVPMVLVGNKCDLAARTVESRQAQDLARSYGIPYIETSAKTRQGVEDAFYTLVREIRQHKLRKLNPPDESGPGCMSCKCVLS
GDP-bound KRAS wild-type protein, sequence (P01116 1-188 isoform P01116-2): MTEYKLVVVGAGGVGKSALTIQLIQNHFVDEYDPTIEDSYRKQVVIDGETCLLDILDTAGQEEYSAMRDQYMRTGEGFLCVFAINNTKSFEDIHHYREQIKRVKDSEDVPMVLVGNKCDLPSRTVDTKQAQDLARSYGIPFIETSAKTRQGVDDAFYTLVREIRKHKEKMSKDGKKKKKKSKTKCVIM

Row | SMILES | Kd [1] [nM] | IC50 [2] [nM] | NRAS /KRAS [3] | HRAS /KRAS (HRAS wild-type protein)
1 | CCC[C@H]1C(=O)N[C@@H]([C@@H](C)CC)C(=O)N(C2CC2)CC(=O)N(C)[C@H]2C/C=C\CCN(C2=O)[C@@H](Cc2ccc(C(F)(F)F)cc2)C(=O)N(C)CC(=O)N[C@@H](CCc2cc(F)c(C(F)(F)F)c(F)c2)C(=O)N2CC[C@H](OC)[C@H]2C(=O)N(C)C2(CCC2)C(=O)N(C)[C@@H](C2CCCC2)C(=O)N(C)[C@H](C(=O)N(C)C)CC(=O)N1C [PP3282] | 0.2 | 8.3 | A (a compound having 10 or more and less than 20 is denoted as A) | A (a compound having 10 or more and less than 20 is denoted as A)
2 | CCC[C@H]1C(=O)N[C@@H]([C@@H](C)CC)C(=O)N2CCC[C@H]2C(=O)N(C)[C@H]2C/C=C\CCN(C2=O)[C@@H](Cc2ccc(C(F)(F)F)cc2)C(=O)N(C)CC(=O)N[C@@H](CCc2cc(F)c(C(F)(F)F)c(F)c2)C(=O)N2CC[C@H](OC)[C@H]2C(=O)N(C)C2(CCC2)C(=O)N(C)[C@@H](C2CCCC2)C(=O)N(C)[C@H](C(=O)N(C)C)CC(=O)N1C [PP3283] | 0.26 | 7.5 | A (a compound having 10 or more and less than 20 is denoted as A) | A (a compound having 10 or more and less than 20 is denoted as A)
3 | CCC[C@H]1C(=O)N[C@@H]([C@@H](C)CC)C(=O)N(C)CC(=O)N(C)[C@H]2C/C=C\CCN(C2=O)[C@@H](Cc2ccc(C(F)(F)F)cc2)C(=O)N(C)CC(=O)N[C@@H](CCc2cc(F)c(C(F)(F)F)c(F)c2)C(=O)N2CC[C@H](OC)[C@H]2C(=O)N(C)C2(CCC2)C(=O)N(C)[C@@H](C2CCCC2)C(=O)N(C)[C@H](C(=O)N(C)C)CC(=O)N1C [PP3284] | 0.067 | 5 | A (a compound having 10 or more and less than 20 is denoted as A) | A (a compound having 10 or more and less than 20 is denoted as A)
4 | CCC[C@H]1C(=O)N[C@@H]([C@@H](C)CC)C(=O)N(C2CC2)CC(=O)N(C)[C@H]2C/C=C\CCN(C2=O)[C@@H](Cc2ccc(C)cc2)C(=O)N(C)CC(=O)N[C@@H](CCc2cc(F)c(C(F)(F)F)c(F)c2)C(=O)N2CC[C@H](OC)[C@H]2C(=O)N(C)C2(CCC2)C(=O)N(C)[C@@H](C2CCCC2)C(=O)N(C)[C@H](C(=O)N(C)C)CC(=O)N1C [PP3285] | 0.15 | 9.3 | A (a compound having 10 or more and less than 20 is denoted as A) | A (a compound having 10 or more and less than 20 is denoted as A)
5 | CCC[C@H]1C(=O)N[C@@H]([C@@H](C)CC)C(=O)N2CCC[C@H]2C(=O)N(C)[C@H]2C/C=C\CCN(C2=O)[C@@H](Cc2ccc(C)cc2)C(=O)N(C)CC(=O)N[C@@H](CCc2cc(F)c(C(F)(F)F)c(F)c2)C(=O)N2CC[C@H](OC)[C@H]2C(=O)N(C)C2(CCC2)C(=O)N(C)[C@@H](C2CCCC2)C(=O)N(C)[C@H](C(=O)N(C)C)CC(=O)N1C [PP3286] | 0.15 | 11.4 | A (a compound having 10 or more and less than 20 is denoted as A) | A (a compound having 10 or more and less than 20 is denoted as A)
6 | CCC[C@H]1C(=O)N[C@@H]([C@@H](C)CC)C(=O)N(C)CC(=O)N(C)[C@H]2C/C=C\CCN(C2=O)[C@@H](Cc2ccc(C)cc2)C(=O)N(C)CC(=O)N[C@@H](CCc2cc(F)c(C(F)(F)F)c(F)c2)C(=O)N2CC[C@H](OC)[C@H]2C(=O)N(C)C2(CCC2)C(=O)N(C)[C@@H](C2CCCC2)C(=O)N(C)[C@H](C(=O)N(C)C)CC(=O)N1C [PP3287] | 0.057 | 5.4 | A (a compound having 10 or more and less than 20 is denoted as A) | B (a compound having 3 or more and less than 10 is denoted as B)
7 | CCC[C@H]1C(=O)N[C@@H]([C@@H](C)CC)C(=O)N(C2CC2)CC(=O)N(C)[C@H]2C/C=C\CCN(C2=O)[C@@H](Cc2ccc(C(F)(F)F)cc2)C(=O)N(C)CC(=O)N[C@@H](CCc2ccc(C(F)(F)F)c(Cl)c2)C(=O)N2CC[C@H](OC)[C@H]2C(=O)N(C)C2(CCC2)C(=O)N(C)[C@@H](C2CCCC2)C(=O)N(C)[C@H](C(=O)N(C)C)CC(=O)N1C [PP3288] | 0.21 | 6.9 | A (a compound having 10 or more and less than 20 is denoted as A) | A (a compound having 10 or more and less than 20 is denoted as A)
8 | CCC[C@H]1C(=O)N[C@@H]([C@@H](C)CC)C(=O)N2CCC[C@H]2C(=O)N(C)[C@H]2C/C=C\CCN(C2=O)[C@@H](Cc2ccc(C(F)(F)F)cc2)C(=O)N(C)CC(=O)N[C@@H](CCc2ccc(C(F)(F)F)c(Cl)c2)C(=O)N2CC[C@H](OC)[C@H]2C(=O)N(C)C2(CCC2)C(=O)N(C)[C@@H](C2CCCC2)C(=O)N(C)[C@H](C(=O)N(C)C)CC(=O)N1C [PP3289] | 0.26 | 17.6 | A (a compound having 10 or more and less than 20 is denoted as A) | A (a compound having 10 or more and less than 20 is denoted as A)
9 | CCC[C@H]1C(=O)N[C@@H]([C@@H](C)CC)C(=O)N(C)CC(=O)N(C)[C@H]2C/C=C\CCN(C2=O)[C@@H](Cc2ccc(C)cc2)C(=O)N(C)CC(=O)N[C@@H](CCc2ccc(C(F)(F)F)c(OC)c2)C(=O)N2CC3(CC3)C[C@H]2C(=O)N(C)C2(CCC2)C(=O)N(C)[C@@H](C2CCCC2)C(=O)N(C)[C@H](C(=O)N(C)C)CC(=O)N1C [PP3290] | 0.021 | 1.9 | A (a compound having 10 or more and less than 20 is denoted as A) | B (a compound having 3 or more and less than 10 is denoted as B)
10 | CCC[C@H]1C(=O)N[C@@H]([C@@H](C)CC)C(=O)N(C)CC(=O)N(C)[C@H]2C/C=C\CCN(C2=O)[C@@H](Cc2ccc(C(F)(F)F)cc2)C(=O)N(C)CC(=O)N[C@@H](CCc2ccc(C(F)(F)F)c(OC)c2)C(=O)N2CC3(CC3)C[C@H]2C(=O)N(C)C2(CCC2)C(=O)N(C)[C@@H]([C@@H](C)CC)C(=O)N(C)[C@H](C(=O)N(C)C)CC(=O)N1C [PP3291] | 0.85 | 3.7 | A (a compound having 10 or more and less than 20 is denoted as A) | B (a compound having 3 or more and less than 10 is denoted as B)
11 | CCC[C@H]1C(=O)N[C@@H]([C@@H](C)CC)C(=O)N(C)CC(=O)N(C)[C@H]2C/C=C\CCN(C2=O)[C@@H](Cc2ccc(C)cc2)C(=O)N(C)CC(=O)N[C@@H](CCc2ccc(C(F)(F)F)c(OC)c2)C(=O)N2CC3(CC3)C[C@H]2C(=O)N(C)C2(CCC2)C(=O)N(C)[C@@H](C(CC)CC)C(=O)N(C)[C@H](C(=O)N(C)C)CC(=O)N1C [PP3292] | 0.13 | 5.4 | A (a compound having 10 or more and less than 20 is denoted as A) | A (a compound having 10 or more and less than 20 is denoted as A)
12 | CCC[C@H]1C(=O)N[C@@H]([C@@H](C)CC)C(=O)N(C)CC(=O)N(C)[C@H]2C/C=C\CCN(C2=O)[C@@H](Cc2ccc(C)cc2)C(=O)N(C)CC(=O)N[C@@H](CCc2ccc(C(F)(F)F)c(OC)c2)C(=O)N2CC3(CC3)C[C@H]2C(=O)N(C)C2(CCC2)C(=O)N(C)[C@@H]([C@@H](C)CC)C(=O)N(C)[C@H](C(=O)N(C)C)CC(=O)N1C [PP3294] | 0.099 | 3.4 | A (a compound having 10 or more and less than 20 is denoted as A) | A (a compound having 10 or more and less than 20 is denoted as A)
13 | CCC[C@H]1C(=O)N[C@@H]([C@@H](C)CC)C(=O)N(C)CC(=O)N(C)[C@H]2C/C=C\CCN(C2=O)[C@@H](Cc2ccc(C)cc2)C(=O)N(C)CC(=O)N[C@@H](CCc2ccc(C(F)(F)F)c(OC)c2)C(=O)N2CC3(CC3)C[C@H]2C(=O)N(C)C2(CCC2)C(=O)N(C)[C@@H](CC(C)(C)C)C(=O)N(C)[C@H](C(=O)N(C)C)CC(=O)N1C [PP3296] | 0.079 | 1.4 | B (a compound having 3 or more and less than 10 is denoted as B) | C (A compound having a KD ratio of 0.1 or more and less than 3 is denoted as C)
14 | CCC[C@H]1C(=O)N[C@@H]([C@@H](C)CC)C(=O)N(C)CC(=O)N(C)[C@H]2C/C=C\CCN(C2=O)[C@@H](Cc2ccc(C(F)(F)F)cc2)C(=O)N(C)CC(=O)N[C@@H](CCc2ccc(C(F)(F)F)c(Cl)c2)C(=O)N2CC3(CC3)C[C@H]2C(=O)N(C)C2(CCC2)C(=O)N(C)[C@@H](C(CC)CC)C(=O)N(C)[C@H](C(=O)N(C)C)CC(=O)N1C [PP3297] | 0.48 | 10.2 | A (a compound having 10 or more and less than 20 is denoted as A) | B (a compound having 3 or more and less than 10 is denoted as B)
